Test systems include RXF 393; A549; SF-539; HOP-92; SK-OV-3; UACC-257; SK-MEL-5; M14; UO-31; CCRF-CEM; KM12; HCC 2998; IGROV-1; NCI-H460; 786-0; ACHN; SK-MEL-28; NCI-H226.
Assay in all cases: NCI anticancer screen, dose series, 48 h

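Dose response: 5 concentrations. Exposure: 48 h. Format: 96-well plates. Endpoint: linear interpolation; highest concentration if not reached. GI50 is the concentration that inhibits growth by half.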 Calls of active or inactive are those of the source. No stated cut-off is given here; in the data, active = GI50 up to about 1.1 µM and inactive = higher. Where only a bound is given, the exact number is not on record here.

Take `CCC(=O)N1C(=O)OCC1C(C)C` (stereo not given): the GI50 in the experiment with RXF 393, in the experiment with A549, in the experiment on SF-539, in the experiment on HOP-92, in the experiment on SK-OV-3 and with UACC-257 was > 100 µM (inactive) in each case. For the same molecule, the GI50 in the experiment on SK-MEL-5, in the experiment on M14, in the experiment on UO-31, in the experiment on CCRF-CEM, in the experiment on KM12 and in the experiment with HCC 2998 was > 100 µM (inactive) in each case. In addition, the GI50 with IGROV-1, in the experiment on NCI-H460, in the experiment on 786-0 and in the experiment with ACHN was > 100 µM (inactive) in each case.
With `C[n+]1c2ccccc2c(CNc2ccc(S(=O)(=O)N=C(N)N)cc2)c2ccccc21`, the GI50 with RXF 393 was 15.1 µM (inactive); in the experiment on A549 it was 6.17 µM (inactive); in the experiment with SF-539, 3.24 µM (inactive); with HOP-92, 5.24 µM (inactive); with SK-OV-3 it was 46 µM (inactive); with SK-MEL-28, 12.4 µM (inactive). The GI50 in the experiment on UACC-257 is 16 µM (inactive); in the experiment on SK-MEL-5, 6.92 µM (inactive); in the experiment on M14 it was 6.05 µM (inactive); in the experiment with UO-31, 14.4 µM (inactive); in the experiment on CCRF-CEM it was 1.45 µM (inactive); in the experiment with KM12, 13.2 µM (inactive). For the same molecule, the GI50 with NCI-H226 was 1.6 µM (inactive); in the experiment on HCC 2998, 15.1 µM (inactive); in the experiment on IGROV-1 it was 16.3 µM (inactive); in the experiment with NCI-H460 it was 0.61 µM (active); in the experiment with 786-0 it was 6.84 µM (inactive); in the experiment on ACHN, 6.95 µM (inactive).
Consider `N#CC(C#N)=C1NN=C(Cl)c2ccccc21`, for which the GI50 in the experiment on RXF 393 is > 100 µM (inactive); in the experiment on A549, > 100 µM (inactive); in the experiment on SF-539, 85.5 µM (inactive); with HOP-92, 47.2 µM (inactive); with SK-OV-3, > 100 µM (inactive); in the experiment on SK-MEL-28 it was 61.8 µM (inactive). In addition, the GI50 is 98.6 µM (inactive) with UACC-257; > 100 µM (inactive) in the experiment on SK-MEL-5; > 100 µM (inactive) in the experiment on M14; 50.7 µM (inactive) with UO-31; 88.1 µM (inactive) in the experiment on CCRF-CEM; > 100 µM (inactive) in the experiment on KM12. Also, the GI50 in the experiment with HCC 2998, in the experiment on IGROV-1, with NCI-H460, with 786-0 and in the experiment with ACHN was > 100 µM (inactive) throughout.
Consider `COC1=CC(C)C2C[C@H]3O[C@H](O)C[C@H]4C(C)C(=O)C(O)C([C@@]2(C)C1=O)[C@@]34C` (stereo not given in full), for which the GI50 with RXF 393, with A549, in the experiment on SF-539, in the experiment on HOP-92, in the experiment on SK-OV-3 and in the experiment with SK-MEL-28 was > 100 µM (inactive) each time. The GI50 in the experiment on UACC-257, in the experiment with SK-MEL-5, with M14, in the experiment with UO-31, in the experiment with CCRF-CEM and with KM12 was > 100 µM (inactive) in each case. Besides, the GI50 with NCI-H226, in the experiment on HCC 2998, in the experiment on IGROV-1, with NCI-H460, in the experiment on 786-0 and with ACHN was > 100 µM (inactive) in each case.
In the case of `CC(C)c1ccc(C(c2ccc(OCC(=O)O)cc2)c2ccc(C(C)C)cc(=O)c2O)c(O)c(=O)c1`, the GI50 was 10.2 µM (inactive) in the experiment on RXF 393; 3.48 µM (inactive) in the experiment with A549; 6.05 µM (inactive) in the experiment with SF-539; 0.0478 µM (active) in the experiment with HOP-92; 6.81 µM (inactive) in the experiment with SK-OV-3; 4.81 µM (inactive) in the experiment on SK-MEL-28. The GI50 in the experiment with UACC-257 was 5.6 µM (inactive); in the experiment on SK-MEL-5, 3.22 µM (inactive); in the experiment on M14, 3.18 µM (inactive); in the experiment on CCRF-CEM, 4.05 µM (inactive); in the experiment with HCC 2998, 4.94 µM (inactive); in the experiment on IGROV-1, 4.33 µM (inactive). For the same molecule, the results for the GI50 in the experiment on NCI-H460, in the experiment on 786-0 and with ACHN were 2.83 µM (inactive), 6.47 µM (inactive) and 4.66 µM (inactive), respectively.
For `Cn1c(CCC#N)nc2ccc(Br)cc2c1=O`, the GI50 with RXF 393, in the experiment on A549, in the experiment on SF-539, with HOP-92, in the experiment with SK-OV-3 and in the experiment on SK-MEL-28 was > 100 µM (inactive) in each case. For the same molecule, the GI50 in the experiment with UACC-257 is > 100 µM (inactive); with SK-MEL-5, > 100 µM (inactive); in the experiment on M14 it was > 100 µM (inactive); in the experiment with UO-31 it was > 100 µM (inactive); with CCRF-CEM, 51.9 µM (inactive); in the experiment on KM12, > 100 µM (inactive). Further, the GI50 with NCI-H226, in the experiment with HCC 2998, in the experiment with IGROV-1, in the experiment on NCI-H460, in the experiment with 786-0 and with ACHN was > 100 µM (inactive) throughout.
With `C[C@]12CC[C@H](O)CC1=CC[C@@H]1C2CC[C@]2(C)NC(=O)C(C#N)CC12` (stereo not given in full), the GI50 in the experiment with RXF 393 is 55.1 µM (inactive); in the experiment on A549, > 100 µM (inactive); in the experiment with SF-539, > 100 µM (inactive); in the experiment on SK-OV-3, > 100 µM (inactive); in the experiment on SK-MEL-28 it was 66.8 µM (inactive); with UACC-257, > 100 µM (inactive). For the same molecule, the GI50 in the experiment with SK-MEL-5, in the experiment on M14, with UO-31, with CCRF-CEM, with KM12 and in the experiment on NCI-H226 was > 100 µM (inactive) throughout. The GI50 in the experiment with HCC 2998 was > 100 µM (inactive); in the experiment on IGROV-1, > 100 µM (inactive); in the experiment on NCI-H460, > 100 µM (inactive); in the experiment with 786-0, > 100 µM (inactive); in the experiment with ACHN, 28.6 µM (inactive).
Consider `CCCCCCCCCCCCCC(=O)CSCCNC(=O)CCNC(=O)[C@@H](O)C(C)(C)COP(=O)(O)OP(=O)(O)OCC1OC(n2cnc3c(N)ncnc32)C(O)C1OP(=O)(O)O` (stereo not given in full), for which the GI50 in the experiment with RXF 393 was 25 µM (inactive); with A549, 20.1 µM (inactive); with SF-539, 16.2 µM (inactive); in the experiment with HOP-92 it was 11.5 µM (inactive); in the experiment with SK-OV-3, 14.6 µM (inactive); in the experiment with SK-MEL-28 it was 18.3 µM (inactive). For the same molecule, the GI50 was 18.1 µM (inactive) with UACC-257; 18.9 µM (inactive) with SK-MEL-5; 18.1 µM (inactive) in the experiment with M14; 14.4 µM (inactive) with UO-31; 24.4 µM (inactive) in the experiment on CCRF-CEM; 14.6 µM (inactive) in the experiment with KM12. For the same molecule, the GI50 with NCI-H226 is 18.2 µM (inactive); with HCC 2998 it was 16.5 µM (inactive); with IGROV-1 it was 13.6 µM (inactive); with NCI-H460 it was 25.6 µM (inactive); in the experiment on 786-0 it was 15.5 µM (inactive); with ACHN it was 18.2 µM (inactive).
Consider `Cc1cc2c(=O)cc(-c3ccc(C(=O)O)cc3)oc2c(C(N)=O)c1C`, for which the GI50 in the experiment with A549, in the experiment on SF-539, in the experiment on HOP-92, in the experiment on SK-OV-3, in the experiment on SK-MEL-28 and in the experiment with UACC-257 was > 100 µM (inactive) in each case. The GI50 in the experiment with SK-MEL-5, in the experiment with M14, in the experiment on UO-31, with CCRF-CEM, in the experiment on KM12 and with HCC 2998 was > 100 µM (inactive) throughout. Moreover, the GI50 with IGROV-1, in the experiment on NCI-H460, in the experiment on 786-0 and in the experiment with ACHN was > 100 µM (inactive) in each case.
Turning to `CN(C)c1ccc(/C=C/C(=O)c2ccccc2)cc1Br`, the GI50 is 34.9 µM (inactive) with A549; 33 µM (inactive) in the experiment with SK-OV-3; 13.7 µM (inactive) in the experiment with SK-MEL-28; 22.3 µM (inactive) in the experiment on UACC-257; 18.4 µM (inactive) in the experiment with SK-MEL-5; 13.2 µM (inactive) in the experiment on M14. Also, the GI50 with UO-31 is 18.5 µM (inactive); in the experiment with CCRF-CEM, 20.5 µM (inactive); with KM12, 15.8 µM (inactive); with HCC 2998, 19.2 µM (inactive); in the experiment with IGROV-1, 20.2 µM (inactive); in the experiment with NCI-H460, 35.7 µM (inactive). Besides, the GI50 with 786-0 is 17.2 µM (inactive); in the experiment on ACHN it was 22.8 µM (inactive).
With `C[C@H]1NC(=O)C2CCCCN2C(=O)CN(C)C(=O)CNC(=O)C2CCCCN2C(=O)[C@@H](NC(=O)c2nc3ccccc3cc2O)[C@@H](C)NC(=O)C2CCCCN2C(=O)CN(C)C(=O)CNC(=O)[C@@H]2CCCCN2C(=O)C1NC(=O)c1nc2ccccc2cc1O` (stereo not given in full), the GI50 is 0.0463 µM (active) in the experiment on RXF 393; 0.318 µM (active) with A549; 0.201 µM (active) with SF-539; 0.482 µM (active) with SK-OV-3; 0.212 µM (active) in the experiment with SK-MEL-28; 0.185 µM (active) in the experiment on UACC-257. Also, the GI50 in the experiment on SK-MEL-5 was 0.155 µM (active); in the experiment on M14, 0.241 µM (active); in the experiment with UO-31, 0.25 µM (active); in the experiment with CCRF-CEM, 1.02 µM (active); in the experiment with KM12 it was 0.27 µM (active); in the experiment with NCI-H226, 0.0664 µM (active). The GI50 in the experiment with HCC 2998 was 0.204 µM (active); in the experiment on IGROV-1, 0.283 µM (active); in the experiment on NCI-H460, 0.188 µM (active); in the experiment with 786-0, 0.203 µM (active); in the experiment on ACHN it was 0.232 µM (active).
`COC(=O)c1c(OC)cccc1C(=O)O`: the GI50 in the experiment with RXF 393, with A549, in the experiment on SF-539, in the experiment on SK-OV-3, with UACC-257 and in the experiment with SK-MEL-5 was > 100 µM (inactive) each time. The GI50 in the experiment with M14, in the experiment on UO-31, in the experiment on CCRF-CEM, in the experiment on KM12, with NCI-H226 and in the experiment on HCC 2998 was > 100 µM (inactive) each time. The GI50 in the experiment with IGROV-1, with NCI-H460, in the experiment with 786-0 and in the experiment with ACHN was > 100 µM (inactive) each time.
